Data taken from patent US11312724B2 (ASCENTAGE PHARMA (SUZHOU) CO., LTD., priority 2021, dated 2022).

Key:
[1] = test system: NCI-H358 cell; assay: Cell proliferation assay (Celltiter-Glo), NCI-H358; type: cell-based; details: Homo sapiens, NCI-H358, 72 h, 3 days
Method: (§1) Cell Proliferation Assay:
(§2) NCI-H358 cell and MIA PaCa-2 cell was cultured in RPMI-1640 supplemented with 10% FBS in humidified incubator at 37° C., 5% CO2. To asses the effect of Compounds of the Disclosure on cell proliferation, exponentially growing cells (5000 cells/well) were plated onto 96-well plates. After cell seeding, a representative Compounds of the Disclosure were added to the cell media (in concentrations ranging from 0 to 10 μM, 3/dilution series). After 3 days, 30 μL Celltiter-Glo reagent was added, and the luminescent signal was determined according to supplier's instruction. The dose response curves and IC50 values were generated using Prism.

[2] = test system: MIA PaCa-2 cell; assay: Cell proliferation assay (Celltiter-Glo), MIA PaCa-2; type: cell-based; details: Homo sapiens, MIA PaCa-2, 72 h, 3 days
Method: as §1, §2

| IC50 [1] | IC50 [2] | SMILES |
| --- | --- | --- |
| 440 nM | 76 nM | C=CC(=O)N1CCN(c2nc(OC[C@@H]3CCCN3C)nc3c2CC[C@@]2(CCCc4ccccc42)C3)C[C@@H]1CC#N (single isomer, unassigned) [Cpd. No. 2] |
| 13 nM | 5 nM | C=CC(=O)N1CCN(c2nc(OCC3CCCN3C)nc3c2CC[C@]2(CCc4ccccc42)C3)C[C@@H]1CC#N (single isomer, unassigned) [Cpd. No. 4] |
| 520 nM | 400 nM | C=CC(=O)N1CCN(c2nc(OCC3CCCN3C)nc3c2CC[C@@]2(CCc4ccccc42)C3)C[C@@H]1CC#N (single isomer, unassigned) [Cpd. No. 5] |
| 15 nM | 4.9 nM | C=CC(=O)N1CCN(c2nc(OC[C@@H]3[C@@H]4C[C@@H]4CN3C)nc3c2CC[C@@]2(CCc4c(Cl)cccc42)C3)C[C@@H]1CC#N (single isomer, unassigned) [Cpd. No. 47] |
| 6 nM | 4.3 nM | C=CC(=O)N1CCN(c2nc(OC[C@@H]3[C@H]4C[C@H]4CN3C)nc3c2CC[C@@]2(CCc4c(Cl)cccc42)C3)C[C@@H]1CC#N (single isomer, unassigned) [Cpd. No. 48] |
| 290 nM | 140 nM | C=CC(=O)N1CCN(c2nc(OC[C@@H]3CCCN3C)nc3c2CCC2(CCCc4ccccc42)C3)C[C@H]1CC#N (stereo partly drawn) [Cpd. No. 3, 2-((2R)-1-acryloyl-4-(2′-(((S)-1-methylpyrrolidin-2-yl)methoxy)-3,4,5′,8′-tetrahydro-2H,6′H-spiro[naphthalene-1,7′-quinazolin]-4′-yl)piperazin-2-yl)acetonitrile] |

The remaining lines, values behind:

| SMILES | IC50 [1] | IC50 [2] |
| --- | --- | --- |
| C=C(F)C(=O)N1CCN(c2nc(OC[C@@H]3CCCN3C)nc3c2CCC2(COCc4cccc(F)c42)C3)C[C@@H]1CC#N (some centres unmarked) | 660 nM | 810 nM |
| C=CC(=O)N1CCN(c2nc(OC[C@@H]3CCCN3C)nc3c2CC[C@]2(CCCc4ccccc42)C3)C[C@@H]1CC#N (single isomer, unassigned) [Cpd. No. 1] | 16 nM | 3.6 nM |
| C=CC(=O)N1CCN(c2nc(OC[C@@H]3CCCN3C)nc3c2CCC2(C3)OCCc3ccccc32)C[C@@H]1CC#N (stereo partly drawn) [Cpd. No. 6, 2-((2S)-1-acryloyl-4-(2′-(((S)-1-methylpyrrolidin-2-yl)methoxy)-5′,8′-dihydro-6′H-spiro[isochromane-1,7′-quinazolin]-4′-yl)piperazin-2-yl)acetonitrile] | 210 nM | 170 nM |
| C=CC(=O)N1CCN(c2nc(OC[C@@H]3CCCN3C)nc3c2CCC2(CCCc4ccccc42)C3)CC1 (stereo partly drawn) [Cpd. No. 7, 1-(4-(2′-(((S)-1-methylpyrrolidin-2-yl)methoxy)-3,4,5′,8′-tetrahydro-2H,6′H-spiro[naphthalene-1,7′-quinazolin]-4′-yl)piperazin-1-yl)prop-2-en-1-one] | 1390 nM | 850 nM |
| C=CC(=O)N1CCN(c2nc(OC[C@@H]3CCCN3C)nc3c2CCC2(CCCc4ccccc42)C3)[C@@H](C)C1 (stereo partly drawn) [Cpd. No. 8, 1-((3S)-3-methyl-4-(2′-(((S)-1-methylpyrrolidin-2-yl)methoxy)-3,4,5′,8′-tetrahydro-2H,6′H-spiro[naphthalene-1,7′-quinazolin]-4′-yl)piperazin-1-yl)prop-2-en-1-one] | 940 nM | 500 nM |
| C=CC(=O)N1CCN(c2nc(OC[C@@H]3CCCN3C)nc3c2CCC2(CCc4ccccc42)C3)CC1 (stereo partly drawn) [Cpd. No. 9, 1-(4-(2′-(((S)-1-methylpyrrolidin-2-yl)methoxy)-2,3,5′,8′-tetrahydro-6′H-spiro[indene-1,7′-quinazolin]-4′-yl)piperazin-1-yl)prop-2-en-1-one] | 3270 nM | 1730 nM |
| C=CC(=O)N1CCN(c2nc(OC[C@@H]3CCCN3C)nc3c2CCC2(CCc4ccccc42)C3)[C@@H](C)C1 (stereo partly drawn) [Cpd. No. 10, 1-((3S)-3-methyl-4-(2′-(((S)-1-methylpyrrolidin-2-yl)methoxy)-2,3,5′,8′-tetrahydro-6′H-spiro[indene-1,7′-quinazolin]-4′-yl)piperazin-1-yl)prop-2-en-1-one] | 2230 nM | 1180 nM |
